In patent publication US11993579B1, “3-(1-(3-(dimethylamino)propyl)-4,5-diphenyl-1h-imidazol-2-yl)pyridin-4-ol as an anti-microbial compound” (KING FAISAL UNIVERSITY, priority 2023, dated 2024):

Legend:
E. Coli = assay: Anti-microbial activity by agar dilution, E. Coli; assay type: cell-based; conditions: after 10, 20, 40, and 60 min at all dilutions 1:100, 1:200, 1:400, 1:800
Procedure: (§1) The antibacterial properties of the synthesized compounds were studied by the method of agar dilution. Test solutions of each compound was prepared in a concentration of 1% using dimethylformamide as a solvent. Then the test solutions were diluted in a physiological solution to obtain the final experimental dilutions of 1:100, 1:200, 1:400, and 1:800. The effect of these substances was compared with furacillin in a controllable study. The testing microbes used were gram positive bacteria St. Aereus, gram negative bacteria E. Coli, and Ps. aeruginosa and Candida albicans fungi. The experiments used for this survey were a meat-pentonlu agar (EPA) for cultivation of bacteria and a Saburo environment for fungi. Each experiment used 1 mL of test solution on each plate for 500 min. Next, 2 drops of emulsified test solution with microbes feel were added. All experimental samples were taken from the agar after 10, 40, 60 minutes in the environment on the basis of Patrk planted. Bacteria were cultivated at a temperature of 37° C. for 1 day and the mushroom was kept in a thermostat for […] at a temperature of 28° C. Then results were checked.

St. Aereus = assay: Anti-microbial activity by agar dilution, St. Aereus; assay type: cell-based; conditions: after 10, 20, 40, and 60 min at all dilutions 1:100, 1:200, 1:400, 1:800
Procedure: as §1

Candida albicans = assay: Anti-microbial activity by agar dilution, Candida albicans; assay type: cell-based; conditions: after 10, 20, 40, and 60 min at all dilutions 1:100, 1:200, 1:400, 1:800
Procedure: as §1

Ps. Aeroqonaza = assay: Anti-microbial activity by agar dilution, Ps. Aeroqonaza; assay type: cell-based, Ps. aeruginosa; conditions: after 10, 20, 40, and 60 min at all dilutions 1:100, 1:200, 1:400, 1:800
Procedure: as §1

CN(C)CCCn1c(-c2cnccc2O)nc(-c2ccccc2)c1-c1ccccc1 [3-(1-(3-(dimethylamino)propyl)-4,5-diphenyl-1H-imidazol-2-yl)pyridin-4-ol]
inhibition activity, E. Coli (in words) (E. Coli): showed the most inhibition activity
melting point: 137 to 139 °C
inhibition activity, St. Aereus (in words) (St. Aereus): showed the most inhibition activity
inhibition activity, Candida albicans (in words) (Candida albicans): showed the most inhibition activity
inhibition activity, Ps. aeruginosa (in words) (Ps. Aeroqonaza): showed the most inhibition activity
